The values below come from ChEMBL document CHEMBL2434927, “Indenoindoles and cyclopentacarbazoles as bioactive compounds: synthesis and biological applications” (Eur J Med Chem, 2013).

The subject of one assay is MC-38. Kind of assay: Antitumor activity against mouse C38 cells allografted in B6D2F1 mouse assessed as tumor regression at 25 mg/kg, iv administered on days 10, 17 and 24 measured for 10 weeks relative to control. In kind it is functional.
The next assay concerns A-427. The assay can be described thus: Cytotoxicity against human A427 cells assessed as growth inhibition. In kind it is functional.
Assay [1] can be described thus: Cytotoxicity against human KYSE-70 cells assessed as growth inhibition. In kind it is functional.
Assay [2] is described as follows: Cytotoxicity against human LCLC cells assessed as growth inhibition. In kind it is functional.
The subject of another assay is SISO. The assay can be described thus: Cytotoxicity against human SISO cells assessed as growth inhibition. In kind it is functional.
For a further assay, the system named is 5637. The assay can be described thus: Cytotoxicity against human 5637 cells assessed as growth inhibition. The assay is classed as functional.
Assay [3] concerns the target T1, NUAK family SNF1-like kinase 1 (Homo sapiens, UniProt O60285).
T1 sequence (O60285 whole entry): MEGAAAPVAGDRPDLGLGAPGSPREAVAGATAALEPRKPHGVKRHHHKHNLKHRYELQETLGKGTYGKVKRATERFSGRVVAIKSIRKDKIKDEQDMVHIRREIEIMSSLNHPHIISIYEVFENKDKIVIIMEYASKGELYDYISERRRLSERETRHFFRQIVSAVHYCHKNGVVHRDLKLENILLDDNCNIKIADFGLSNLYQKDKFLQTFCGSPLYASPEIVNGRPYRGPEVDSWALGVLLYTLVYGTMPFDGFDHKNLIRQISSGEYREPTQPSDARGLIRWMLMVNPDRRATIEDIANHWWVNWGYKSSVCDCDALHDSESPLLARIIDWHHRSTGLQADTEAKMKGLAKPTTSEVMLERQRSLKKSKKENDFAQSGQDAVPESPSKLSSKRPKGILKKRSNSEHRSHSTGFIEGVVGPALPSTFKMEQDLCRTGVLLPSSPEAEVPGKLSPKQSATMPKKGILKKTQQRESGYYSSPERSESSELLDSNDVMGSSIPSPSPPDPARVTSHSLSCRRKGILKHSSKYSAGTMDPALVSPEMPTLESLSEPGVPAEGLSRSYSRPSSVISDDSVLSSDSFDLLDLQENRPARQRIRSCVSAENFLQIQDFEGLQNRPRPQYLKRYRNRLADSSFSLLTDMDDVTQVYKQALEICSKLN
Kind of assay: Inhibition of human ARK5.

The target of assay [4] is T2, Receptor-type tyrosine-protein kinase FLT3 (Homo sapiens, UniProt P36888).
T2 sequence (P36888 whole entry): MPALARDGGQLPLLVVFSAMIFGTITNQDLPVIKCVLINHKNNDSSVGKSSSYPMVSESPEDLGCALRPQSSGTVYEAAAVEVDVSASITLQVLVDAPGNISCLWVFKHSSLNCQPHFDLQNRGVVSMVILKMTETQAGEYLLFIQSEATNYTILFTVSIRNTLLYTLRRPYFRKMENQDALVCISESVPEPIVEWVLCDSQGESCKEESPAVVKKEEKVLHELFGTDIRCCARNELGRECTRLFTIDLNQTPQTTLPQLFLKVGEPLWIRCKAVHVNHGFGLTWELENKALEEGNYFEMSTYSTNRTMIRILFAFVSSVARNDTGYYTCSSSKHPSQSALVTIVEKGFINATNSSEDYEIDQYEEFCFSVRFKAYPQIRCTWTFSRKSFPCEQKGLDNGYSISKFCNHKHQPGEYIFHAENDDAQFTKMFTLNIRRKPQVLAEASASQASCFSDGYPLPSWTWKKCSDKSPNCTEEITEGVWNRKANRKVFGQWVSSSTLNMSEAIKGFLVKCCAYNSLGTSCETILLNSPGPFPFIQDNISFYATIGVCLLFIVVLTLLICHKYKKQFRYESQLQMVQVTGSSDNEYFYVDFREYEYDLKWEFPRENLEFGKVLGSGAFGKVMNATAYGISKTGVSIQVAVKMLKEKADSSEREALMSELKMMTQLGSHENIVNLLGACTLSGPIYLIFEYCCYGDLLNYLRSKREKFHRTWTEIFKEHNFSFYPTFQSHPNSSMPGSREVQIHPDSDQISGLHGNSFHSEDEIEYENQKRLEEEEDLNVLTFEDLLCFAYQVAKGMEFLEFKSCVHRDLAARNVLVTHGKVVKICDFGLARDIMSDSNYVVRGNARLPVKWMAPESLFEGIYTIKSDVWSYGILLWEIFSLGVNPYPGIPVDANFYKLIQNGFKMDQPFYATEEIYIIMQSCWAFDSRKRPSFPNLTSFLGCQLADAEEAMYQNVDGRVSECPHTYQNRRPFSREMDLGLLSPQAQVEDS
Kind of assay: Inhibition of human FLT3.

The next assay concerns MCF7. Kind of assay: Cytotoxicity against human MCF7 cells assessed as growth inhibition. The assay is classed as functional.
Another assay has as its target Casein kinase II (Homo sapiens, UniProt P19784+P67870+P68400). The assay can be described thus: Inhibition of human CK2. In kind it is protein-complex assay.

Chain of Casein kinase II (P67870 whole entry): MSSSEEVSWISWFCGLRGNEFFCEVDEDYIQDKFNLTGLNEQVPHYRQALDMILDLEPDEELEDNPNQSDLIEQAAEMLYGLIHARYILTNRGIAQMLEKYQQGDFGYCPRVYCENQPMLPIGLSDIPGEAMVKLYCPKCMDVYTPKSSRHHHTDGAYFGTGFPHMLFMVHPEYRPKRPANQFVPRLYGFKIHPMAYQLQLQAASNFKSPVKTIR
Chain of Casein kinase II (P68400 whole entry): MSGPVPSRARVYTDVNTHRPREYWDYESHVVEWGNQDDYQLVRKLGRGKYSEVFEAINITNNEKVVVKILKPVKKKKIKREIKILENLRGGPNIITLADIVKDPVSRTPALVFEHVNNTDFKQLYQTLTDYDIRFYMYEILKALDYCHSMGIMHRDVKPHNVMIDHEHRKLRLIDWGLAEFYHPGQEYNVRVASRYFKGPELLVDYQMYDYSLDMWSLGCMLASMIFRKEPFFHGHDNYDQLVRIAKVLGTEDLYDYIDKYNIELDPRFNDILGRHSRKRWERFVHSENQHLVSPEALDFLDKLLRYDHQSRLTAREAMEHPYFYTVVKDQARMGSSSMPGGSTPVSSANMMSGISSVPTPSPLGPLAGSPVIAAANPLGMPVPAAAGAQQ
Chain of Casein kinase II (P19784 whole entry): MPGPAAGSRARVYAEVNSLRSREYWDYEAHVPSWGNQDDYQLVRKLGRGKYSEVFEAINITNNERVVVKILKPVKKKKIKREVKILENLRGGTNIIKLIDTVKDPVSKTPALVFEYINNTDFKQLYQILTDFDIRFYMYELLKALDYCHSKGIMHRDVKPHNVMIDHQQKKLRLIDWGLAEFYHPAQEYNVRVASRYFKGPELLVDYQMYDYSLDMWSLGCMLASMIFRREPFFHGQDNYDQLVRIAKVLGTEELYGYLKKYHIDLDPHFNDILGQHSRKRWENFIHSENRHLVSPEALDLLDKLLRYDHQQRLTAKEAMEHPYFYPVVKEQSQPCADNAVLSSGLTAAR

Turning to `C#C[C@H](C)O/N=C1/c2cc(OC)c(OC)cc2-c2[nH]c3ccc(OCCN(C)C)cc3c21`, the Activity in the assay on MC-38 is recorded as 100%.
`CC(C)n1c2c(c3c1-c1ccccc1C3=O)C(=O)CCC2=O`: the GI (with A-427; in [1]; in assay [2]; with SISO; with 5637; in the assay on MCF7) was 1.3 µM each time. Further, the IC50 in [3] was 570 nM; in [4] it was 180 nM.
Consider `O=c1ccc(=O)c2c1c1c(=O)c3ccccc3c1n2Cc1ccccc1`, for which the IC50 against Casein kinase II turned out to be 1490 nM.

The IC50 is the concentration that inhibits the measured activity by half.
